The values that follow come from patent US20250073346A1, “PHARMACEUTICAL COMBINATIONS” (Oxford Bio Therapeutics Ltd, priority 2021, published 2025).

In one test the test system is N87 cells. Briefly: Platin after 72 hr LY75_A1 pre-treatment, cell viability (cell-titer glo). Conditions: for reduction of IC50 in cells pre-treated with LY75_A1: pre-treated with LY75_A1 for 72 hours. In kind it is cell-based. As to the method:
(§1) Cells were diluted in excess media and spun down. […] The plate was Incubated for 24 hr at 37° C. to allow cells to adhere and become acclimatized prior to addition of drug. The plates were incubated for 72 hr at 37° C. After 72 hr, the media was removed and replaced with either cisplatin or oxaliplatin at various concentrations (see figures) in 100 ul media before incubation for a further 48 hr.
(§2) After the incubation period, the plate was removed from the incubator and left at room temperature for 30 minutes. Media was removed from the plate which was washed twice with 200 ul PBS. The plate was then treated with cell-titer glo (CTG) following the manufacturer's protocol (Promega, Catalog No. G9681). Briefly, 200 ul CTG solution/well was added before incubating at RT on a plate rotator at low speed for 2 min before incubation in the dark for a further 10 min.
(§3) The plates were removed and the viability under the various conditions calculated.

Another test concerns HT-29 cells. The test is described as above. The class given is cell-based. As to the method:
as §1, §2, §3

In test [1] the test system is NCI-N87 gastric cancer xenograft. Briefly: Subcutaneous NCI-N87 gastric cancer xenograft model. The class given is in vivo, mouse. How it is done: The animals were fed ad libitum water (reverse osmosis, 1 ppm CI) and NIH 31 Modified and Irradiated Lab Diet® consisting standard rodent chow. The mice were housed on Crushed corncob bedding, autoclaved; changed weekly on a 12-hour light cycle at 20-22° C. (68-72° F.) and 40-60% humidity.
The NCI-N87 tumor cells were maintained in vitro with RMPI 1640 medium supplemented with 10% fetal bovine serum at 37° C. in an atmosphere of 5% CO2 in air. The cells in exponential growth phase were harvested and quantitated by cell counter before tumor inoculation.
Each mouse was inoculated subcutaneously in the right upper flank region with NCI-N87 tumor cells (1×10^7) in PBS mixed with matrigel (1:1) for tumor development. After tumor inoculation, the animals were checked daily for morbidity and mortality. During routine monitoring, the animals were checked for any effects of tumor growth and treatments on behavior such as mobility, food and water consumption, body weight gain/loss (Body weights would be measured two times per week after randomization), eye/hair matting and any other abnormalities. Mortality and observed clinical signs were recorded for individual animals in detail.
Tumor volumes were measured two times per week after randomization in two dimensions using a caliper, and the volume was expressed in mm3 using the formula: V=(L×W×W)/2, where V is tumor volume, L is tumor length (the longest tumor dimension) and W is tumor width (the longest tumor dimension perpendicular to L). Dosing as well as tumor and body weight measurements were conducted in a Laminar Flow Cabinet.
The randomization started when the mean tumor size reached approximately 183 mm3. […]
Each animal was euthanized for tumor progression (TP) when its tumor reached the […] endpoint. The time to endpoint (TTE) for each mouse was calculated with the following equation: TTE=log (endpoint volume)−b/m. […] Any animal determined to have died from treatment-related (TR) causes was to be assigned a TTE value equal to the day of death. […]
Treatment outcome was evaluated from tumor growth delay (TGD), which was defined as the increase in the median TTE for a treatment group compared to the control group: TGD=T−C expressed in days or as a percentage of the median TTE for the control group % TGD=T−C/C×100 where, T=median TTE for a treatment group, C=median TTE for the control group.
Animals were weighed daily on Days 1-5, and then twice weekly until the end of the study. Group mean BW nadirs were determined before more than 50% of the animals in a group exited the study. The mice were observed frequently for health and overt signs of any adverse TR side effects, and clinical observations were recorded, if observed. […]

In a further test the test system is HPAFII cells. Nature of the test: Platin after 72 hr LY75_A1 pre-treatment, cell viability (cell-titer glo). The class given is cell-based. The note with it: for viability of cells: HPAFII, ~50 uM oxaliplatin. As to the method: as §1, §2, §3
The target in the next test is T1, LY75 (Homo sapiens, UniProt O60449).
T1 construct: tissue US Biomax Inc. or Origene; host or cells: FFPE triple negative breast cancer tissue sections/arrays
Briefly: Immunohistochemistry with anti-LY75 antibody on FFPE Triple Negative breast cancer samples. How it is done: (§4) Using the human monoclonal antibodies specific to LY75, immunohistochemistry was performed on FFPE HT-29 and A549 cell pellets, FFPE non-Hodgkin's lymphoma and pancreatic cancer arrays, and fresh frozen lymphoma/leukaemia tumours, ovarian cancer, pancreatic cancer, and breast cancer sections and a normal tissue array.
FFPE slides were deparaffinised in xylene (2×3 minutes) then rehydrated through 1:1 xylene: 100% ethanol (1×3 minutes), 100% ethanol (2×3 minutes), 95% ethanol (1×3 minutes), 70% ethanol (1×3 minutes), 50% ethanol (1×3 minutes), and tap water (1×3 minutes).
(§5) The LY75 antigen was retrieved using microwave heat, high power until boiling then low power for 10 minutes in 50 mL 1×citrate buffer in a Coplin jar. Slides were then left to cool to room temperature for a further 15 min, then washed in tap water, 3 minutes. Circles were drawn around each tissue section/TMA with a hydrophobic barrier pen and slides were then washed 3 times in PBS, 3 minutes each wash.
The primary anti-LY75 antibody was diluted in serum free protein block (SFPB) to obtain a solution with a concentration 20-fold greater than the final desired concentration (20 μg/mL for 1 μg/mL final). The secondary antibody, goat anti-human immunoglobulin G (IgG) antigen-binding fragment (Fab), was prepared similarly in SFPB to create a solution of equal concentration. […]

Test [2] concerns the target T2, LY75 (DEC-205), lymphocyte antigen 75 (human, UniProt O60449 28-1722).
T2 construct: Endogenous LY75 in human tumour tissue sections and on human tumour cell lines
Briefly: immunohistochemistry on FFPE human tumour tissue sections. How it is done: as §4, §5
Meanwhile, endogenous tissue peroxidase activity was blocked by incubating tissues with peroxidase suppressor for 5-10 minutes at RT in a humidified chamber. Slides were then washed in PBS 3×3 minutes each wash. Tissues were incubated in SFPB for 30 minutes at room temperature in a humidified chamber. Final staining complexes were applied to each tissue section and/or microarray, and the slides were incubated for 30 min at room temperature in a humidified chamber. Slides were then washed once in PBS and once in PBST (PBS+0.125% Tween-20), 3 minutes each wash. […]

Where [3] appears, read: N87 cells pretreated with 1 nM LY75_A1 for 72 hours.
[4] abbreviates: N87 cells pretreated with 10 nM LY75_A1 for 72 hours.
[5] abbreviates: HT29 cells pretreated with 0.5 nM LY75_A1 for 72 hours.
Setting [6] is: HT29 cells pretreated with 2 nM LY75_A1 for 72 hours.
Setting [7] is: single agent, single i.v. dose day 1 (OBT076 1 mg/kg; Oxaliplatin 5 mg/kg).

T1 sequence (O60449 28-1722): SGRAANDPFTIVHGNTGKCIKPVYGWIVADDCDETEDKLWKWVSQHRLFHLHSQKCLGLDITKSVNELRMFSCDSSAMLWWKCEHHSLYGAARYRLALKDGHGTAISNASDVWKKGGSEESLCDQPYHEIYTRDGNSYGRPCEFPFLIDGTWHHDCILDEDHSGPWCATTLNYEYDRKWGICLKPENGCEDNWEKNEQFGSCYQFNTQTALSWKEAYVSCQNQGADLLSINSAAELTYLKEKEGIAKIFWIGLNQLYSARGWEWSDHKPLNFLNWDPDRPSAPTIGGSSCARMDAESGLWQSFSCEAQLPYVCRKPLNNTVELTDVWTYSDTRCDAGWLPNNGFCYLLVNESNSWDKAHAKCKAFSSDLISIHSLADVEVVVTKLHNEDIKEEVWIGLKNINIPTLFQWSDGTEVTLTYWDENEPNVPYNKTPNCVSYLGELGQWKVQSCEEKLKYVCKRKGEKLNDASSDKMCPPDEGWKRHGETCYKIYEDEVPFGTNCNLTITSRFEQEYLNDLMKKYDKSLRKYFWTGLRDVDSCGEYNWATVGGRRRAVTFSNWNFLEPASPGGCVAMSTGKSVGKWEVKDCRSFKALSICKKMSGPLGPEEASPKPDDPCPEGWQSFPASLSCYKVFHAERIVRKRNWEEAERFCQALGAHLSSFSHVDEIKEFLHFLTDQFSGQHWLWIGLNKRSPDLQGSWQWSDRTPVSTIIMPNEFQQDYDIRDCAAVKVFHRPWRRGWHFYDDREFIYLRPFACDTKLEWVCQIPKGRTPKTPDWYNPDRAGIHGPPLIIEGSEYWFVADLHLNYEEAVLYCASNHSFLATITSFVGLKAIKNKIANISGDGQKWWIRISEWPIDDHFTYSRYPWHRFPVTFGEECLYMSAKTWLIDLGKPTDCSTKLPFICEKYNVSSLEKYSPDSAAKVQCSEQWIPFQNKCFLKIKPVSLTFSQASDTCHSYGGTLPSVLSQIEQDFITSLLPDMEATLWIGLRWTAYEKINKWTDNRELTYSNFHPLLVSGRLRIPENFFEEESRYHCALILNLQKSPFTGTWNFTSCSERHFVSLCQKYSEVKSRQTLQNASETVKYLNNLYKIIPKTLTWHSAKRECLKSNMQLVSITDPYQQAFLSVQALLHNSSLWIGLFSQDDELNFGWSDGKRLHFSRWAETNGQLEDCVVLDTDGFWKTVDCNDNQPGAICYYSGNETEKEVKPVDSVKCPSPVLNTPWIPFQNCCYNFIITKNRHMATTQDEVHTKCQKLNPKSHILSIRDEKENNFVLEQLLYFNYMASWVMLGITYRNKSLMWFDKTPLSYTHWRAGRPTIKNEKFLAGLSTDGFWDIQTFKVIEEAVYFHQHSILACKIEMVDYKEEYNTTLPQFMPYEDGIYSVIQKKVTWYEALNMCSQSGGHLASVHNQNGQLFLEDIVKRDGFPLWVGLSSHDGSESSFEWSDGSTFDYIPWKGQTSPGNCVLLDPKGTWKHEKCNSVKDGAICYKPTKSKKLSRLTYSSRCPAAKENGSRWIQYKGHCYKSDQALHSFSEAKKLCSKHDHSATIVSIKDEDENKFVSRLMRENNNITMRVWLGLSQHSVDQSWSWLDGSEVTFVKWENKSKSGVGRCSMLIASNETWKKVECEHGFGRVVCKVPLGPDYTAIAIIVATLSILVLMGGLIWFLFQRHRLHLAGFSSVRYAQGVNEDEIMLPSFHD
T2 sequence (O60449 28-1722 limits assumed): as the sequence (O60449 28-1722) above

What is called IC50 is the concentration needed to halve the response being measured. Turning to `N.N.[Cl][Pt][Cl]` [Cisplatin, cis-diamminedichloroplatinum(II)], the viability of cells result with N87 cells (N87, ~3 uM cisplatin, not pre-treated, FIG. 5E) is on record as “no cell death”; with N87 cells (N87, ~3 uM cisplatin, pre-treated with 1 or 10 nM LY75_A1, FIG. 5E) it was “significantly lower than those which are not pre-treated”; in the test on HT-29 cells (HT-29, ~10 uM cisplatin, not pre-treated, FIG. 5B), “no cell death”; with HT-29 cells (HT-29, ~10 uM cisplatin, pre-treated with 2 nM LY75_A1, FIG. 5B), “significantly lower than those which are not pre-treated”. For the same molecule, the IC50 with N87 cells (setting [3]) amounted to 3.5 µM; in the test with N87 cells (setting [4]), 0.9 µM; with N87 cells (N87 cells, cisplatin alone, 48 hr), 10 µM; in the test with HT-29 cells (setting [5]), 44.6 µM; with HT-29 cells (setting [6]), 18.7 µM; in the test with HT-29 cells (HT29 cells, cisplatin alone, 48 hr), 44.7 µM. Also, in the test with N87 cells (N87 cells), the “reduction of IC50 in cells pre-treated with LY75_A1” value was 10 fold.
As to `O=C1[O][Pt]2([NH][C@@H]3CCCC[C@H]3[NH]2)[O]C1=O` [Oxaliplatin], in test [1] (by Day 81, single agent alone), the “mice that had died” value is roughly 71%. For the same molecule, in test [1] (setting [7]), the “TGI on day 60” value was 0.49%. In addition, the “Tumor Size (mm^3) on day 60” value in test [1] (setting [7]) is listed as 1969.92 +/− 258.93 mm^3. Besides, in test [1] (to Day 81, single agent, single i.v. dose day 1 (OBT076 1 mg/kg; Oxaliplatin 5 mg/kg)), the “% Survival” value is given as 28.57%. Also, the viability of cells entry is listed as “no cell death” in the test with N87 cells (N87, ~10 uM oxaliplatin, not pre-treated, FIG. 5D); “significantly lower than those which are not pre-treated” in the test on N87 cells (N87, ~10 uM oxaliplatin, pre-treated with 1 or 10 nM LY75_A1, FIG. 5D); “no cell death” in the test on HT-29 cells (HT-29, ~10 uM oxaliplatin, not pre-treated, FIG. 5A); “significantly lower than those which are not pre-treated” in the test with HT-29 cells (HT-29, ~10 uM oxaliplatin, pre-treated with 2 nM LY75_A1, FIG. 5A); “no cell death” in the test on HPAFII cells (not pre-treated, FIG. 5C); “significantly lower than those which are not pre-treated” in the test with HPAFII cells (pre-treated with all concentrations (1, 3, 10 nM) of LY75_A1, FIG. 5C). In addition, the IC50 in the test with N87 cells (setting [3]) worked out at 14.1 µM; in the test with N87 cells (setting [4]) it was 1 µM; in the test with N87 cells (N87 cells, oxaliplatin alone, 48 hr), 44.5 µM; in the test on HT-29 cells (setting [5]), 55.1 µM; in the test on HT-29 cells (setting [6]) it was 32.7 µM; with HT-29 cells (HT29 cells, oxaliplatin alone, 48 hr) it was 66.8 µM. Further, the IC50 with HPAFII cells (HPAFII cells pretreated with 1 nM LY75_A1 for 72 hours) is 85.4 µM; in the test with HPAFII cells (HPAFII cells pretreated with 3 nM LY75_A1 for 72 hours) it was 62.1 µM; in the test on HPAFII cells (HPAFII cells pretreated with 10 nM LY75_A1 for 72 hours), 58.8 µM; in the test with HPAFII cells (HPAFII cells, oxaliplatin alone, 48 hr) it was roughly 256 µM. In addition, the “reduction of IC50 in cells pre-treated with LY75_A1” value in the test on N87 cells (N87 cells) was 44 fold; in the test on HPAFII cells (HPAFII cells, pre-treated with LY75_A1 for 72 hours), “approximately 4 fold”.

B1: LY75_A1 monoclonal antibody (antibody, human IgG1, kappa, V domains shown)
VH: EVQLVESGGGLVKPGGSLRLSCAASGFTYSNAWMSWVRQAPGKGLEWVGRIKSKTDGGTTDYAAPVQGRFTISRDDSKNTLYLQMNSLKTEDTAVYYCTIFGVVSFDYWGQGTLVTVSS
VL: DVQMTQSPSSLSASVGDRVTITCRASQSISDYLSWYQQRPGKAPNLLIYAASNLKTGVPSRFSGSGSGTDFTLTISTLQPEDFATYYCQQSYRSPWTFGQGTKVEIKR
notes: Human antibody, detected with goat anti-human IgG Fab in the immunohistochemistry; also called anti-LY75_A1
Consider B1, for which, in the test with LY75, the “sections exhibited robust (+++) staining” value is 55% and the “sections showed positive staining” value came to 77%. Moreover, in test [2], the binding result is listed as “binds”.
